Molecular target: soluble guanylate cyclase (human GUCYA3 and GUCYB3) overexpressed in CHO cells (Homo sapiens (Human), UniProt Q02108+Q02153)
Assay: CHO cellular assay (cGMP production, Cisbio cGMP HTRF kit)
Type: cell-based
Conditions: CHO GUCY clone 8E10, cGMP production, assay buffer with 1 mM IBMX and 20 uM ODQ, 1 h room temperature; minimum quantification limit 0.5 nM (listed 0.5 nM means ≤0.5 nM); read-out: EC50
Source text: Chinese hamster ovary (CHO) cells overexpressing soluble guanylate cyclase were generated to test the effect of sGC activators in a cellular context. Human cDNAs for GUCYA3 (RefSeq: NM_000856.3) and GUCYB3 (RefSeq: NM_000857.1) were amplified by PCR from a HUVEC (Human Umbilical Vein Endothelial Cells) cDNA library and cloned into mammalian expression vectors. CHO K1 cells (ATCC CCL-61) were transfected using Lipofectamine 2000 following manufacturer's instructions and stably expressing clones were identified by antibiotic selection. CHO GUCY clone 8E10 was used for subsequent experiments. Cells were seeded at a density of 3000 cells/well in white 384-well proxyplates (Perkin Elmer) and incubated overnight, then the medium was removed and cells were washed with assay buffer (HBSS, 0.1% BSA. 1 mM IBMX, 20 uM ODQ). sGC activators were serially diluted in DMSO, then diluted in assay buffer prior to adding to cells (10 ul/well, final DMSO concentration 0.5%). Cells were incubated with compounds for 1 h room temperature, then assayed for cGMP production using Cisbio cGMP HTRF kit (62GM2PEC) according to manufacturer's instructions. The EC50s are calculated based on the amount of cGMP interpolated from the standard curve, using a 4-parameter sigmoidal dose-response.

Chain of soluble guanylate cyclase (human GUCYA3 and GUCYB3) overexpressed in CHO cells (Q02108 whole entry partner): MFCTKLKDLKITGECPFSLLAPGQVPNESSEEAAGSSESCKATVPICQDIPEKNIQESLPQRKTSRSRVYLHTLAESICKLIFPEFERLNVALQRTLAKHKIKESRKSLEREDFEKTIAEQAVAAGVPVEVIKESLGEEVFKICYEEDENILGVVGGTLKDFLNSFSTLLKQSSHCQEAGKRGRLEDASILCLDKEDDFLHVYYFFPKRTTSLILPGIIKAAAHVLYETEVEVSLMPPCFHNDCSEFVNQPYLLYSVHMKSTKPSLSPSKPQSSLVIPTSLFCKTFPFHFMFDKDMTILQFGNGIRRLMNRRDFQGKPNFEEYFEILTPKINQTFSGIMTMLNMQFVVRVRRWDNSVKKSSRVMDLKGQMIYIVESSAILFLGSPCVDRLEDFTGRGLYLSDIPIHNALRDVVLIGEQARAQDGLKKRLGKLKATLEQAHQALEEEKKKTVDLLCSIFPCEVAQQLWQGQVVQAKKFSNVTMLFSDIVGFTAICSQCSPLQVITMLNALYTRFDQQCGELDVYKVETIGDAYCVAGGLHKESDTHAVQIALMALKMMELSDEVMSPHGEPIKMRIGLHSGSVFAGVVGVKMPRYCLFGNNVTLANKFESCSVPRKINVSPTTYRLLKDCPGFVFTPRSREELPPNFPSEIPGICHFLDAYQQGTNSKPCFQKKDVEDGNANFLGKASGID
Chain of soluble guanylate cyclase (human GUCYA3 and GUCYB3) overexpressed in CHO cells (Q02153 whole entry): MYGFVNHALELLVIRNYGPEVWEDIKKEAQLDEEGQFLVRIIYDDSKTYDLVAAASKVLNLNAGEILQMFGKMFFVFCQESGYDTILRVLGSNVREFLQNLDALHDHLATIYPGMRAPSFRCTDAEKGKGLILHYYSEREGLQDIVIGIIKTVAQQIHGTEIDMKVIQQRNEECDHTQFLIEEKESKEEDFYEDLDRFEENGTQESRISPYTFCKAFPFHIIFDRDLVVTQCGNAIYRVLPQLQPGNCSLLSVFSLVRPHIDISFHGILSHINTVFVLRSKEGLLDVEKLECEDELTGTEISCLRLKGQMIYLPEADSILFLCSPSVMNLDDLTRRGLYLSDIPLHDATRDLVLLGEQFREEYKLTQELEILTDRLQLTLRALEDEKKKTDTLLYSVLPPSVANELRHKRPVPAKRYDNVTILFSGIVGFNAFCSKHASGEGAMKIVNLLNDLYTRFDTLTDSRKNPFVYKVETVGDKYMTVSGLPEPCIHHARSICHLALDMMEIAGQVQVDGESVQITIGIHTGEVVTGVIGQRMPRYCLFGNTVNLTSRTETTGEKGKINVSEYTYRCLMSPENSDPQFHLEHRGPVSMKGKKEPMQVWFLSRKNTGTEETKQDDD

`CCc1cc(O[C@H]2CCc3cccc(-c4cccc(-n5ncc(C(=O)O)c5CC)n4)c32)ccc1C1CCN(C(=O)OCC2CC2)CC1` [Example 64-6, (S)-1-(6-(3-(4-(1-((Cyclopropylmethoxy)carbonyl)piperidin-4-yl)-3-ethylphenoxy)-2,3-dihydro-1H-inden-4-yl)pyridin-2-yl)-5-ethyl-1H-pyrazole-4-carboxylic acid] was tested. Which EC50 did it give?
Its EC50 is 1.4 nM.

Which EC50 does the source give for `CCc1cc(NC2COc3cccc(-c4cccc(-n5ncc(C(=O)O)c5C(F)(F)F)n4)c32)ccc1C1CCN(C(=O)C2CC2)CC1` (single isomer, unassigned; (-)) [(−)-36-1, (−)-1-(6-(3-((4-(1-(Cyclopropanecarbonyl)piperidin-4-yl)-3-ethylphenyl)amino)-2,3-dihydrobenzofuran-4-yl)pyridin-2-yl)-5-(trifluoromethyl)-1H-pyrazole-4-carboxylic acid] here?
Its EC50 is 20 nM.

Which EC50 does the source give for `CCC[C@H](O)C(=O)N1CCC(c2ccc(CC3CCc4cccc(-c5cccc(-n6ncc(C(=O)O)c6CC)n5)c43)c(C)c2)CC1` (single isomer, unassigned; (+)) [40-3 (+)] here?
Its EC50 is at most 0.5 nM.

For `CCc1cc(CC2CCc3cccc(-c4cccc(-n5ncc(C(=O)O)c5CC)n4)c32)ccc1C1CCN(C(=O)C2CC2)CC1` (single isomer, unassigned; (-)) [38-1 (−), (−)-1-(6-(3-(4-(1-(cyclopropanecarbonyl)piperidin-4-yl)-3-ethylbenzyl)-2,3-dihydro-1H-inden-4-yl)pyridin-2-yl)-5-ethyl-1H-pyrazole-4-carboxylic acid], which EC50 is on record?
The EC50 was 17 nM.

How did the EC50 turn out when `Cc1cc(C2CCN(C(=O)CC3CC3)CC2)c(F)cc1NC1CCc2cccc(-c3cccc(-n4ncc(C(=O)O)c4C)n3)c21` (single isomer, unassigned; (-)) [(−)-46-5, (−)-1-(6-(3-((4-(1-(2-Cyclopropylacetyl)piperidin-4-yl)-5-fluoro-2-methylphenyl)amino)-2,3-dihydro-1H-inden-4-yl)pyridin-2-yl)-5-methyl-1H-pyrazole-4-carboxylic acid] was run?
The EC50 was 681 nM.

`Cc1cc(C2CCN(C3CC3)CC2)ccc1NC1CCc2cccc(-c3cccc(-n4ncc(C(=O)O)c4C)n3)c21` (racemic) [Example 60, (±)-1-(6-(3-(4-(1-Cyclopropylpiperidin-4-yl)-2-methylphenyl)amino)-2,3-dihydro-1H-inden-4-yl)pyridin-2-yl)-5-methyl-1H-pyrazole-4-carboxylic Acid] was tested. Which EC50 did it give?
The EC50 was 5.3 nM.

With `CCOC(=O)N1CCC(c2ccc(NC3CCc4cccc(-c5cccc(-n6ncc(C(=O)O)c6CC)n5)c43)cc2CC)CC1` (single isomer, unassigned; (+)) [(+)-52-1] as the molecule, how does the EC50 read?
The EC50 was at most 0.5 nM.

Which EC50 does the source give for `Cc1c(C(=O)O)cnn1-c1cccc(-c2cccc3c2C(Nc2ccc(C4CCN(C(=O)C5CC5)CC4)cc2)CC3)n1` (single isomer, unassigned; (+)) [Example 9. b). (+), (+)-1-(6-(3-((4-(1-(cyclopropanecarbonyl)piperidin-4-yl)phenyl)amino)-2,3-dihydro-1H-inden-4-yl)pyridin-2-yl)-5-methyl-1H-pyrazole-4-carboxylic acid] here?
The EC50 was at most 0.5 nM.

With `CCc1cc(NC2CCc3cccc(-c4cccc(-n5ncc(C(=O)O)c5CC)n4)c32)ccc1C1CCN(C(=O)OC(C)C)CC1` (single isomer, unassigned; (+)) [Example 51a] as the molecule, how does the EC50 read?
Its EC50 is at most 0.5 nM.

For `Cc1cc(C2CCN(C(=O)C(C)C)CC2)ccc1NC1CCc2cccc(-c3cccc(-n4ncc(C(=O)O)c4C)n3)c21` (single isomer, unassigned; (+)) [(+)-46-1], which EC50 is on record?
The EC50 was at most 0.5 nM.

For `CCc1cc(O[C@H]2CCc3cccc(-c4cccc(-n5ncc(C(=O)O)c5CC)n4)c32)ccc1C1CCN(C(=O)[C@@H](O)CC)CC1` [Example 31-2], which EC50 is on record?
The EC50 was at most 0.5 nM.

How did the EC50 turn out when `CCc1cc(NC2COc3cccc(-c4cccc(-n5ncc(C(=O)O)c5C(F)(F)F)n4)c32)ccc1C1CCN(C(=O)C2CC2)CC1` (single isomer, unassigned; (+)) [(+)-36-1, (+)-1-(6-(3-((4-(1-(Cyclopropanecarbonyl)piperidin-4-yl)-3-ethylphenyl)amino)-2,3-dihydrobenzofuran-4-yl)pyridin-2-yl)-5-(trifluoromethyl)-1H-pyrazole-4-carboxylic acid] was run?
The EC50 was at most 0.5 nM.

`Cc1cc(C2CCN(C(=O)CC3CC3)CC2)ccc1NC1CCc2cccc(-c3cccc(-n4ncc(C(=O)O)c4C)n3)c21` (single isomer, unassigned; (-)) [(−)-46-3, (−)-1-(6-(3-((4-(1-(2-Cyclopropylacetyl)piperidin-4-yl)-2-methylphenyl)amino)-2,3-dihydro-1H-inden-4-yl)pyridin-2-yl)-5-methyl-1H-pyrazole-4-carboylic acid] was tested. Which EC50 did it give?
Its EC50 is 303 nM.

How did the EC50 turn out when `CCc1c(C(=O)O)cnn1-c1cccc(-c2cccc3c2N(Cc2ccc(C4CCN(C(=O)C5CC5)CC4)cc2C)CC3C)n1` (single isomer, unassigned; (+)) [(+)-20-2, (+)-1-(6-(1-(4-(1-(Cyclopropanecarbonyl)piperidin-4-yl)-2-methylbenzyl)-3-methylindolin-7-yl)pyridin-2-yl)-5-ethyl-1H-pyrazole-4-carboxylic acid] was run?
Its EC50 is 9.9 nM.

`CCC[C@H](O)C(=O)N1CCC(c2ccc(O[C@H]3CCc4cccc(-c5cccc(-n6ncc(C(=O)O)c6CC)n5)c43)cc2CC)CC1` [Example 31-1] was tested. Which EC50 did it give?
Its EC50 is at most 0.5 nM.

How did the EC50 turn out when `Cc1cc(C2CCN(C(=O)C3CC3)CC2)ccc1NC1CCc2cccc(-c3cccc(-n4ncc(C(=O)O)c4C)c3)c21` (racemic) [Example 11-4, (±)-1-(3-(3-((4-(1-(cyclopropanecarbonyl)piperidin-4-yl)-2-methylphenyl)amino)-2,3-dihydro-1H-inden-4-yl)phenyl)-5-methyl-1H-pyrazole-4-carboxylic acid] was run?
The EC50 was at most 0.5 nM.

`Cc1c(NC2CCc3cccc(-c4cccc(-n5ncc(C(=O)O)c5C)n4)c32)ccc(C2CCN(C(=O)CC3CC3)CC2)c1F` (single isomer, unassigned) [Example (−) or (+)-46-4, 1-(6-(3-((4-(1-(2-cyclopropylacetyl)piperidin-4-yl)-3-fluoro-2-methylphenyl)amino)-2,3-dihydro-1H-inden-4-yl)pyridin-2-yl)-5-methyl-1H-pyrazole-4-carboxylic acid] was tested. Which EC50 did it give?
The EC50 was 136 nM.

Which EC50 does the source give for `Cc1cc(C2CCN(C(=O)C3CC3)CC2)ccc1NC1CCc2cccc(-c3cccc(-n4ncc(C(=O)O)c4C(F)F)c3)c21` (single isomer, unassigned; (+)) [Example 55-2, (+)-1-(3-(3-((4-(1-(Cyclopropanecarbonyl)piperidin-4-yl)-2-methylphenyl)amino)-2,3-dihydro-1H-inden-4-yl)phenyl)-5-(difluoromethyl)-1H-pyrazole-4-carboxylic acid] here?
The EC50 was at most 0.5 nM.

`CCc1cc(CC2CCc3cccc(-c4cccc(-n5ncc(C(=O)O)c5CC)n4)c32)ccc1C1CCN(C(=O)[C@H](C)O)CC1` (single isomer, unassigned; (+)) [Example 39. b). (+)] was tested. Which EC50 did it give?
The EC50 was at most 0.5 nM.

For `CCc1cc(CN2c3c(cccc3-c3cccc(-n4ncc(C(=O)O)c4CC)n3)CC2C)ccc1C1CCN(C(=O)C2CC2)CC1` (single isomer, unassigned; (+)) [Example 22a, (+)-1-(6-(1-(4-(1-(Cyclopropanecarbonyl)piperidin-4-yl)-3-ethylbenzyl)-2-methylindolin-7-yl)pyridin-2-yl)-6-ethyl-1H-pyrazole-4-carboxylic Acid], which EC50 is on record?
The EC50 was 1 nM.

With `Cc1cc(C2CCN(C(=O)C3CC3)CC2)ccc1NC1COc2cccc(-c3cccc(-n4ncc(C(=O)O)c4C)n3)c21` (single isomer, unassigned; (-)) [Example 34b] as the molecule, how does the EC50 read?
The EC50 was 3.9 nM.

Which EC50 does the source give for `Cc1cc(C2CCN(C(=O)C3CC3)CC2)ccc1NC1CCc2cccc(-c3cccc(-n4ncc(C(=O)O)c4C(F)(F)F)n3)c21` (single isomer, unassigned; (+)) [Example (+)-8. b), (+)-1-(6-(3-((4-(1-(cyclopropanecarbonyl)piperidin-4-yl)-2-methylphenyl)amino)-2,3-dihydro-1H-inden-4-yl)pyridin-2-yl)-5-(trifluoromethyl)-1H-pyrazole-4-carboxylic acid] here?
The EC50 was at most 0.5 nM.

With `Cc1cc(C2CCN(C(=O)C3CC3)CC2)ccc1CC1CCc2cccc(-c3cccc(-n4ncc(C(=O)O)c4C)c3)c21` (single isomer, unassigned; (+)) [54. b). (+), (+)-1-(3-(3-(4-(1-(cyclopropanecarbonyl)piperidin-4-yl)-2-methylbenzyl)-2,3-dihydro-1H-inden-4-yl)phenyl)-5-methyl-1H-pyrazole-4-carboxylic acid] as the molecule, how does the EC50 read?
Its EC50 is 1 nM.

With `COCCOC(=O)N1CCC(c2ccc(NC3CCc4cccc(-c5cccc(-n6ncc(C(=O)O)c6C)n5)c43)c(C)c2)CC1` (centres unmarked) [Example 52-5] as the molecule, how does the EC50 read?
The EC50 was 1 nM.

`Cc1cc(C2CCN(c3ccccn3)CC2)ccc1NC1CCc2cccc(-c3cccc(-n4ncc(C(=O)O)c4C)n3)c21` (racemic) [Example 59, (±)-Methyl-16-(3-((2-methyl-4-(1-(pyridin-2-yl)piperidin-4-yl)phenyl)amino)-2,3-dihydro-1H-inden-4-yl)pyridin-2-yl)-1H-pyrazole-4-carboxylic Acid] was tested. Which EC50 did it give?
Its EC50 is 1 nM.

Same assay, conditions: EC50 (nM)

For `C=CCOC(=O)N1CCC(c2ccc(O[C@H]3CCc4cccc(-c5cccc(-n6ncc(C(=O)O)c6CC)n5)c43)cc2CC)CC1` [Example 64-5, (S)-1-(6-(3-(4-(1-((Allyloxy)carbonyl)piperidin-4-yl)-3-ethylphenoxy)-2,3-dihydro-1H-inden-4-yl)pyridin-2-yl)-5-ethyl-1H-pyrazole-4-carboxylic acid], which EC50 is on record?
The EC50 was at most 0.5 nM.
